# PubChem BioAssay (NCI)
#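 All cell lines were grown in 96-well plates and treated with compound for 48 hours. The concentration for full growth arrest is given as TGI.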
# Key:
# Experiment in all cases: NCI anticancer screen, dose series, 48 h
# [1] = system: SK-MEL-5 melanoma
# [2] = system: 786-0 renal
# [3] = system: IGROV1 ovarian
# [4] = system: HCC-2998 colon
# [5] = system: SF-295 CNS
# [6] = system: SF-268 CNS
# [7] = system: SNB-19 CNS
# [8] = system: SK-OV-3 ovarian
# [9] = system: SN12C renal
# [10] = system: M14 melanoma
# [11] = system: MDA-MB-435
SMILES,TGI [1],TGI [2],TGI [3],TGI [4],TGI [5],TGI [6],TGI [7],TGI [8],TGI [9],TGI [10],TGI [11]
Cc1ccc(S(=O)(=O)Nc2cccc3c(=O)[nH]cnc23)cc1,> 100 µM,> 100 µM,> 100 µM,> 100 µM,> 100 µM,> 100 µM,> 100 µM,> 100 µM,> 100 µM,> 100 µM,
O=C(O)CO[C@@]12C#C/C=C\C#C[C@@H]3N(C(=O)Oc4ccccc4)c4ccccc4[C@]14O[C@@]34CCC2,> 100 µM,> 100 µM,> 100 µM,28.7 µM,,85.2 µM,> 100 µM,19.9 µM,> 100 µM,> 100 µM,6.29 µM
C#CCn1c(=O)c(I)cn(/C(=C/C(=O)OCC)C(=O)OCC)c1=O,,3.09 µM,38.3 µM,,> 59.2 µM,35.1 µM,34.5 µM,31.8 µM,32.3 µM,3.61 µM,19.8 µM
S=C(N/N=C/c1ccccn1)N1CCCCC1,1.13 µM,7.08 µM,,> 100 µM,> 100 µM,,> 100 µM,> 38.8 µM,1.96 µM,1.36 µM,> 100 µM
N#Cc1ccc(-c2nc3c(N)ncnc3o2)cc1,> 100 µM,> 100 µM,> 100 µM,> 100 µM,> 100 µM,> 100 µM,> 100 µM,,> 100 µM,> 100 µM,> 100 µM
CCC(CC)NC1=C(NC(C)=O)C(=O)c2ccccc2C1=O,> 50 µM,> 50 µM,> 50 µM,> 50 µM,> 50 µM,> 50 µM,> 50 µM,> 50 µM,> 50 µM,> 50 µM,
NC(=Nc1ccccc1Cl)c1ccccc1N,> 100 µM,> 100 µM,> 100 µM,> 100 µM,> 100 µM,> 100 µM,> 100 µM,> 100 µM,,> 100 µM,> 100 µM
CN(C)/C=C/C(=CC=[N+](C)C)/C=C/N(C)C,> 100 µM,> 100 µM,> 100 µM,> 100 µM,> 100 µM,> 100 µM,> 100 µM,> 100 µM,> 100 µM,> 100 µM,
COc1ccc(CC2COc3cc(OC)cc(OC)c3C2=O)cc1 (stereo not drawn),68 µM,51.7 µM,> 100 µM,,48.3 µM,> 100 µM,> 100 µM,56.6 µM,> 100 µM,78.8 µM,18.1 µM
CC(=O)OCC1OC(N2C(C)=C(C(C)=O)C(c3ccc(Cl)cc3)C(C#N)=C2S)C(OC(C)=O)C(OC(C)=O)C1OC(C)=O (stereo not drawn),> 100 µM,> 100 µM,> 100 µM,> 100 µM,> 100 µM,> 100 µM,> 100 µM,,> 100 µM,> 100 µM,> 100 µM
CC1C2CC(C(S(=O)(=O)O)C2=O)C1(C)C (stereo not drawn),,> 100 µM,> 100 µM,> 100 µM,> 100 µM,> 100 µM,> 100 µM,> 100 µM,> 100 µM,> 100 µM,> 100 µM
